Experimental data as given in US6528481B1, “NG2/HM proteoglycan-binding peptides that home to angiogenic vasculature and related methods” (The Burnam Institute, priority 1999, dated 2003).
Where no end group is shown, it is not given here.

Key:
NG2 = NG2 (Rattus norvegicus, UniProt Q00657); assay: Binding of peptide to NG2 (no method given)
NG2Δ3 [1] = assay: Inhibition of phage binding to NG2Δ3-coated wells by GST-peptide fusion proteins; set-up: species or system rat; details: increasing concentrations of GST protein; for effect on binding of TAASGVRSMH-phage to NG2 coated wells: FIG. 3A; for effect on binding of LTLRWVGLMS-phage to NG2: FIG. 3B
Experimental: Binding of individual phage clones or an aliquot of unselected phage library control to NG2 or BSA-coated control wells was performed as described above using 1×10^9 input phage/well. For competition studies, phage incubations were performed in the presence of increasing concentrations of soluble NG2 or GST-fusion proteins.
GST-fusion proteins containing the decapeptide inserts were constructed as previously described (Rajotte et al., J. Clin. Invest. 102:430-437 (1998)). Briefly, peptide inserts were amplified by polymerase chain reaction (PCR) from the phage using specific M13 primers. PCR products were then digested with BamHI and EcoRI and inserted into the pGEX2TK vector. Fusion proteins were produced and purified according to the manufacturer's instructions (Pharmacia Biotech Inc.; Piscataway N.J.).
GST-peptide fusion proteins containing one of the two NG2-binding motifs, TAASGVRSMH (SEQ ID NO:1) or LTLRWVGLMS (SEQ ID NO:2), were tested for their ability to inhibit binding of phage to NG2Δ3-coated wells. Purified TAASGVRSMH-phage and LTLRWVGLMS-phage were incubated in NG2Δ3-coated wells in the presence of increasing concentrations of GST-TAASGVRSMH fusion protein, GST-LTLRWVGLMS fusion protein, or GST alone, and phage binding was quantified. Results shown in FIG. 3 are representative of three independent experiments and error bars show S.E.M. of the mean from triplicate platings of duplicate wells. The differences indicated by “*” are considered highly significant by student t test (p<0.01).

NG2Δ3 [2] = assay: Solid-phase assay: binding of soluble NG2Δ3 to immobilized GST-peptide fusion proteins; set-up: species or system rat; details: soluble fusion protein, increasing concentrations (50 mg in FIG. 4A)
Experimental: Solid-phase assays were performed as described previously (Burg et al., supra, 1996). Briefly, fusion proteins (2 μg/well) were coated onto microtiter wells overnight at 4° C. Wells were blocked with 2% BSA in PBS and incubated with soluble NG2Δ3 (1 μg/well) for 2 hr at room temperature. After washing, wells were then incubated with an anti-NG2 polyclonal antibody followed by washing and incubation with an ^125I-labeled goat anti-rabbit IgG. After final washing, bound radioactivity was determined using a gamma counter. For competition studies, soluble NG2Δ3 was preincubated 15 min with increasing concentrations of soluble GST-fusion proteins prior to incubation on wells coated with GST-fusion protein.
The ability of soluble NG2 to bind to GST-TAASGVRSMH and GST-LTLRWVGLMS was tested by using a solid phase assay. Purified NG2Δ3 was incubated in wells coated with GST-TAASGVRSMH or GST-LTLRWVGLMS in the absence of inhibitor, or after preincubation with 50 mg of soluble GST-TAASGVRSMH, GST-LTLRWVGLMS or GST alone. Binding of NG2Δ3 was determined, and the results shown in FIG. 4 are representative of three independent experiments. Error bars show S.E.M. of the mean from triplicate wells. The differences indicated by “*” are considered significant by student t test (p<0.05). The differences indicated by “**” are considered highly significant by student t test (p<0.01).

[3] = test system: recombinant fragment of rat NG2 (NG2ECΔ3); assay: Biopanning of linear decapeptide phage library on NG2-coated wells; type: binding; details: for selection/enrichment of NG2-binding sequences in in vitro panning: five successive rounds on NG2-coated wells
Source text: To identify peptide motifs capable of interacting with NG2, recombinant NG2 fragments consisting of the N-terminal two-thirds of the extracellular domain of NG2 proteoglycan were generated. Briefly, a recombinant fragment of rat NG2 consisting of the N-terminal two-thirds of the extracellular domain (NG2ECΔ3) was purified from transfected human embryonic kidney 293 cells as described (Tillet et al., J. Biol. Chem. 272:10769-10776 (1997)). Recombinant NG2 diluted in phosphate buffered saline (PBS) (2 μg NG2/well) was coated onto microtiter wells overnight at 4° C. Wells were blocked with 2% bovine serum albumin (BSA) in PBS for 1 hr at room temperature. For biopanning, phage (1×10^11 TU) from a linear decapeptide phage library diluted in 2% BSA were added to NG2-coated wells and incubated for 2 hr at room temperature. Wells were washed with PBS containing 0.1% TWEEN-20 to remove unbound phage. Bound phage were recovered by direct infection of wells with exponentially growing K91kan bacteria, followed by phage amplification overnight at 37° C. Amplified phage were then subjected to four subsequent rounds of selection on NG2-coated wells. Phage binding was quantified by counting colonies from aliquots of phage-infected bacteria removed from NG2-coated wells. Phage were sequenced from randomly selected clones as described previously (Rajotte et al., J. Clin. Invest. […]:430-437 (1998)).
To identify peptide motifs capable of interacting with NG2, the recombinant NG2 fragments were used to select phage clones from a random decapeptide phage display library. Bound phage were isolated and used for successive rounds of panning on the NG2 proteoglycan. Five successive rounds of biopanning were performed. Random clones were sequenced from rounds II to V. Sequence analysis from the final three rounds of panning are shown in Table 1. In parentheses is the number of clones displaying the same sequence. The sequences shown in column III of Table 1 are referenced as SEQ ID NOS:1-15.

Chain of recombinant fragment of rat NG2 (NG2ECΔ3) (Q00657 30-1450 limits assumed, stated change not applied): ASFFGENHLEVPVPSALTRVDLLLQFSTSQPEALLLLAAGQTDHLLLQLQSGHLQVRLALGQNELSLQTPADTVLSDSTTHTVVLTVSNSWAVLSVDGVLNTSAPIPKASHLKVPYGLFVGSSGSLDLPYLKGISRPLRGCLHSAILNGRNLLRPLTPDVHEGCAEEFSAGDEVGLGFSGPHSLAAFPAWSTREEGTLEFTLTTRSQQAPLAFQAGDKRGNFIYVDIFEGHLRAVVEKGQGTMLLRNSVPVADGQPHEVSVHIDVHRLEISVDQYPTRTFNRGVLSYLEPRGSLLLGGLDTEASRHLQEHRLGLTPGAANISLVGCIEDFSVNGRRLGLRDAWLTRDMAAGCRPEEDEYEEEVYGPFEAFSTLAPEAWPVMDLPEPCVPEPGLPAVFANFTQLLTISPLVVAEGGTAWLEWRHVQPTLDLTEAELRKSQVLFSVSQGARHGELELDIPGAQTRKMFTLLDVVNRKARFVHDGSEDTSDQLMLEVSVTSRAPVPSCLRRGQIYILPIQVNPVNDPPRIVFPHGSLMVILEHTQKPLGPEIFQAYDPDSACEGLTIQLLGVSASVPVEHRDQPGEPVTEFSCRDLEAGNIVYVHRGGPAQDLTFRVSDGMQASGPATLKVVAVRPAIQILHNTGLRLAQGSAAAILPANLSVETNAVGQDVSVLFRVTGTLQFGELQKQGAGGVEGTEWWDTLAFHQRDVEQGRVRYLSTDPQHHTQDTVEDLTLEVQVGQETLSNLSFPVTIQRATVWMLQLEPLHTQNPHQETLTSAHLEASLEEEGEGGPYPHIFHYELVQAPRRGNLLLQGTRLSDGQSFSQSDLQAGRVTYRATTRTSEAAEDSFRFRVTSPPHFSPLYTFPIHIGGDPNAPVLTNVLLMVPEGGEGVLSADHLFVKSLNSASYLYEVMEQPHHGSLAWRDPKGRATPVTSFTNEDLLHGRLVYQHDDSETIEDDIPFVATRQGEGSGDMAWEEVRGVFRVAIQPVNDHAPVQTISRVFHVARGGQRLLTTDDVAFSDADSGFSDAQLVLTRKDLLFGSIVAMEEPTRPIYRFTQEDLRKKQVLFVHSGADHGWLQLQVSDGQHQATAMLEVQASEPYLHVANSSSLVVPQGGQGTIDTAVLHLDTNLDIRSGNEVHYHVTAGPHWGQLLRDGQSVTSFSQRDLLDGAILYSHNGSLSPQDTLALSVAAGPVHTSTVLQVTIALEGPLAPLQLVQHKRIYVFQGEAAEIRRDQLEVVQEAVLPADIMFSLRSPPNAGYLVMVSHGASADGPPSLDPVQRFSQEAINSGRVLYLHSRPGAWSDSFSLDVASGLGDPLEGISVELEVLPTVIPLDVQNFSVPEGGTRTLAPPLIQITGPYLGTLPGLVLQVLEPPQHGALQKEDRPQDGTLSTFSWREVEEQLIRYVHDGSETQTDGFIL
Chain of NG2Δ3 (Q00657 30-1450 limits assumed, stated change not applied): as above
Chain of NG2 (Q00657 30-2326): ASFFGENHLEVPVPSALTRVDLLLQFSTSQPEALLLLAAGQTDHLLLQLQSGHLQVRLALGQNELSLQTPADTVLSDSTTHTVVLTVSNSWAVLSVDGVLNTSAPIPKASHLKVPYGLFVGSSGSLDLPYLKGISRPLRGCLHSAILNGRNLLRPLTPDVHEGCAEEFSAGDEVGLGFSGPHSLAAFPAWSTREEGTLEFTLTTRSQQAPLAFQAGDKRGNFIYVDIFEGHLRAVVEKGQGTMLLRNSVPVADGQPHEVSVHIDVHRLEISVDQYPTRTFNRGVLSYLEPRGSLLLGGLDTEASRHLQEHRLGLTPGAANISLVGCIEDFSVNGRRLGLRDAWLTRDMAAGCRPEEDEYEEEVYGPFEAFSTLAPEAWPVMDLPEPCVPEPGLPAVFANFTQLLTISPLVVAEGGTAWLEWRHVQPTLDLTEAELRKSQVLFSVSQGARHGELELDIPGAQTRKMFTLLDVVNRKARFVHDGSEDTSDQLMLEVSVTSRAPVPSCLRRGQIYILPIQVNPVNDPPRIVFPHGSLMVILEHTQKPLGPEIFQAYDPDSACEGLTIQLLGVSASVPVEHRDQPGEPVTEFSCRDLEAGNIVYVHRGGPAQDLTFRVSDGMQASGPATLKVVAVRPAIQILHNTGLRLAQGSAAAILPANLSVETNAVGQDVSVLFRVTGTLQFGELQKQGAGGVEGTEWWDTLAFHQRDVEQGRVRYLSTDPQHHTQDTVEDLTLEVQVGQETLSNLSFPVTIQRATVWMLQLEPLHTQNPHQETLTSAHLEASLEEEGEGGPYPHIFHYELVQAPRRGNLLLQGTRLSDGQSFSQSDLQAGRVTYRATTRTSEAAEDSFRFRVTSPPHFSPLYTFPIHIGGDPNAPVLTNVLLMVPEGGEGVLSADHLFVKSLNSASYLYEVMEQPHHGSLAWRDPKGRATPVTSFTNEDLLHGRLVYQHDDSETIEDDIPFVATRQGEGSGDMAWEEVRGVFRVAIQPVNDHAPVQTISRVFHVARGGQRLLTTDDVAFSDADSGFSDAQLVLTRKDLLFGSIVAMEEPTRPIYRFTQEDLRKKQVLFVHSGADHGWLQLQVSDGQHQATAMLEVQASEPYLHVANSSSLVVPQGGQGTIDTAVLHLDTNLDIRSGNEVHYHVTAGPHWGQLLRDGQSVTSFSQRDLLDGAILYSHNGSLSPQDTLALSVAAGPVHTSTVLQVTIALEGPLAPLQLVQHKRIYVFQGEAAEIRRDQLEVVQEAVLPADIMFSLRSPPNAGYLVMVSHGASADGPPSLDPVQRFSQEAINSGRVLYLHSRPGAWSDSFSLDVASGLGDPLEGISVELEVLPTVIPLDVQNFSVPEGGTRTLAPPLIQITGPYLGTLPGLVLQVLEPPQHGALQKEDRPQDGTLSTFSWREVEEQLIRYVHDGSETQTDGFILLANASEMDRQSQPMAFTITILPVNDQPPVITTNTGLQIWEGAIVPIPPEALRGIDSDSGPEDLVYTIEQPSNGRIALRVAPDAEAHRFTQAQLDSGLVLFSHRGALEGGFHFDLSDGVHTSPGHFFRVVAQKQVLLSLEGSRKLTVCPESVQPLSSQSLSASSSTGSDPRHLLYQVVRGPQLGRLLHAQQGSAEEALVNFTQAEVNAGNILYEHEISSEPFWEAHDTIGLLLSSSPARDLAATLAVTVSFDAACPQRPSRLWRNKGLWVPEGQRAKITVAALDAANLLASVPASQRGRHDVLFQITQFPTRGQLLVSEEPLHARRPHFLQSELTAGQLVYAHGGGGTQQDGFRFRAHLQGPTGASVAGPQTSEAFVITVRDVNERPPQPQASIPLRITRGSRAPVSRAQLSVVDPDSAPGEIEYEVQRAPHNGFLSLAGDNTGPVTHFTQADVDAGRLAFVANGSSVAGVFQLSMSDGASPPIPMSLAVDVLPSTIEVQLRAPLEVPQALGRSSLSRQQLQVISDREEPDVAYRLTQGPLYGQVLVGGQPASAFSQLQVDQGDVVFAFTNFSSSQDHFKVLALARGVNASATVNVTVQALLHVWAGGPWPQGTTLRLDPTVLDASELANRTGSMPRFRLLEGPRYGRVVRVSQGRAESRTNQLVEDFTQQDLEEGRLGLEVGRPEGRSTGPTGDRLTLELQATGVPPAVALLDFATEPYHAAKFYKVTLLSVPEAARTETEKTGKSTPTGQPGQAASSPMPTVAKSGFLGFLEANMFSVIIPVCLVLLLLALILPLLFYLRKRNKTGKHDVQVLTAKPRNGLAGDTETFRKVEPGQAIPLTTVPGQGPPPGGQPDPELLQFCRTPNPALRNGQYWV

Substance: CLSGSLSC
- binding to NG2 (NG2): found to bind to NG2

Substance: GST-TAASGVRSMH: GST-fusion protein containing the decapeptide insert TAASGVRSMH ({GST}-TAASGVRSMH)
- effect on binding of TAASGVRSMH-phage to NG2 coated wells (NG2Δ3 [1]): dose-dependent decrease in binding
- effect on binding of LTLRWVGLMS-phage to NG2 (NG2Δ3 [1]): inhibited the binding
- effect of preincubation on binding of NG2 to wells coated with GST-TAASGVRSMH (NG2Δ3 [2]): dose-dependent decrease in binding

Substance: TAASGVRSMH
- selection/enrichment of NG2-binding sequences in in vitro panning [3]: specifically enriched in later rounds of in vitro panning
- number of clones displaying the same sequence ([3]; panning round IV): TAASGVRSMH (16)
- number of clones displaying the same sequence ([3]; panning round V): TAASGVRSMH (SEQ ID NO: 1) (8)

Substance: LTLRWVGLMS
- selection/enrichment of NG2-binding sequences in in vitro panning [3]: specifically enriched in later rounds of in vitro panning
- number of clones displaying the same sequence ([3]; panning round IV): LTLRWVGLMS (10)
- number of clones displaying the same sequence ([3]; panning round V): LTLRWVGLMS (SEQ ID NO: 2) (7)

Substance: control GST protein: control GST protein containing no peptide insert [reference compound]
- effect on binding of TAASGVRSMH-phage to NG2 coated wells (NG2Δ3 [1]): little effect on binding
- effect on binding of LTLRWVGLMS-phage to NG2 (NG2Δ3 [1]): no significant effect on the binding

Substance: GST-LTLRWVGLMS: GST-fusion protein containing the decapeptide insert LTLRWVGLMS ({GST}-LTLRWVGLMS)
- effect on binding of TAASGVRSMH-phage to NG2 coated wells (NG2Δ3 [1]): inhibited
- effect on binding of LTLRWVGLMS-phage to NG2 (NG2Δ3 [1]): inhibited the binding
- effect of preincubation on binding of NG2 to wells coated with GST-TAASGVRSMH (NG2Δ3 [2]): inhibited binding

Substance: GGGTRAGMKY
- number of clones displaying the same sequence ([3]; panning round III): GGGTRAGMKY (SEQ ID NO: 3) (2)
